This series is described as follows: Surface tension of SDS solution after repeated additions of mesoporous MCM particles (surfactant trapping). In kind it is physicochemical. As to conditions: pure SDS solution (8.2 mM), before addition of MCM particles. As for the experimental part:
Anionic mesoporous nanoparticles (MCM) were suspended into water, wetted, and separated from free water by centrifugation. Pure sodium dodecyl sulphate (SDS) solution (8.2 mM) provides a starting surface tension of about 36.5 mN/m. Per 1 g of MCM particles, 15 mL of SDS is added, resulting in an increase of the surface tension to 45 mN/m. Second, third, and fourth additions result in 57.5 mN/m, 66.8 mN/m, and 70.5 mN/m, respectively. After four mesoporous particle additions, the pure water value is already approached. This is illustrated in FIG. 1. Such non-limiting methods have been unexpectedly discovered to be useful for reliably and predictably preparing a stable nanoparticle suspension of a poorly soluble active ingredient. Cationic mesoporous nanoparticles (MCM) are suspended in water, wetted, and separated from free water by centrifugation. Pure sodium dodecyl sulphate (SDS) solution (8.2 mM) provides a starting surface tension of about 36.5 mN/m. Per 1 g of MCM particles, 15 mL of SDS is added, resulting in an increase of the surface tension to 40 mN/m. Second and third additions result in 54.0 mN/m and 70.0 mN/m, respectively. After three mesoporous particle additions, the pure water value is already approached. This is illustrated in FIG. 2. […]

Turning to `CCCCCCCCCCCCOS(=O)(=O)[O-].[Na+]` [sodium dodecyl sulphate (SDS), sodium dodecyl sulphate], the starting surface tension result is on record as “about 36.5 mN/m”.
